Reference: patent publication US6362190B1, “Method for treating inflammatory diseases by administering a thrombin inhibitor” (Merck & Co., Inc., priority 1998, dated 2002)

Test system: adjuvant-induced arthritis (Mycobacterium butyricum) in female Lewis rats
Test: Development and severity of adjuvant-induced arthritis in female Lewis rats (paw volumes, radiographic scores)
Assay type: in vivo
Conditions: for Radiographic total scores of secondary paws compared with vehicle treated rats, in words: day 21, secondary paws; for Radiographic scores, Primary paws / Radiographic scores, Secondary paws / Increase in primary foot volume, Day 21 / Increase in secondary foot volume, Day 21: day 21; for Radiographic scores, Primary paws / Radiographic scores, Secondary paws: total score, maximum 26 per foot, high score = high inflammation, thrombin inhibitor 50 mg/kg/day, Indomethacin 1 mg/kg/day oral; for Increase in primary foot volume, Day 14 / Increase in primary foot volume, Day 21: primary (adjuvant-injected) paw; for Increase in primary foot volume, Day 14 / Increase in primary foot volume, Day 21 / Increase in secondary foot volume, Day 14 / Increase in secondary foot volume, Day 21: oral gavage daily, thrombin inhibitor 50 mg/kg, Indomethacin 1 mg/kg; for Increase in primary foot volume, Day 14: mercury displacement plethysmography; for Increase in secondary foot volume, Day 14 / Increase in secondary foot volume, Day 21: secondary (contralateral, not injected) paw
Procedure: The thrombin inhibitor 3-(2-phenylethylamino)-6-methyl-1-(2-amino-6-methyl-5-methylene-carboxamidomethylpyridinyl)-2-pyrazinone was evaluated to determine its effect on induced arthritis. Arthritis was induced by injection of female Lewis rats with Mycobacterium butyricum. The effect of the thrombin inhibitor was compared with the effect of Indomethacin and the effect of a vehicle control.
Fifty 7.5 week old female Lewis rats (body weight 149-174 grams) were included in the study. Forty rats were each injected with an emulsion containing 0.5 mg of Mycobacterium butyricum in 0.1 ml of light mineral oil, and a negative control group of 10 rats was not injected with adjuvant.
Ten of the rats receiving Mycobacterium butyricum further received Indomethacin by oral gavage at a total daily dose of 1 mg/kg. Ten of the rats receiving Mycobacterium butyricum further received the thrombin inhibitor by oral gavage at a total daily dose of 50 mg/kg. Twenty of the rats receiving Mycobacterium butyricum further received a vehicle control of sterile distilled water.
Body weights, primary and secondary paw volumes, and lateral radiographs were determined before and at various time points including 21 days following adjuvant injection. The primary paw was injected with the Mycobacterium butyricum while the secondary (contralateral) paw was not injected. Paw volumes were determined by mercury displacement plethysmography. Lateral radiographs were obtained under Ketamine and Xylazine anesthesia.
Radiographs were made of both hind paws on days 0 and 21 and evaluated for changes in the soft and hard tissues. The following radiographic changes were graded numerically according to severity:increased soft tissue volume (0-4), narrowing or widening of joint spaces ([…]), subchondral erosion (0-3), periosteal reaction (0-4), osteolysis (0-4), subluxation (0-3), and degenerative joint changes (0-3). The maximum possible score for each foot was 26. High scores correspond with high levels of inflammation.

With `COc1ccc2c(c1)c(CC(=O)O)c(C)n2C(=O)c1ccc(Cl)cc1` [Indomethacin, reference compound] the “Radiographic total scores of primary paws compared with vehicle treated rats, in words” value (day 21, primary paws, versus vehicle) was “significantly less”, the “Radiographic total scores of secondary paws compared with vehicle treated rats, in words” value (versus vehicle) was “significantly less” and the “Radiographic scores, Primary paws” value was 4.6 ± 1.6. The “Radiographic scores, Secondary paws” value was 3.5 ± 1.4, the “Increase in primary foot volume, Day 14” value was 726 ± 174 µL and the “Increase in primary foot volume, Day 21” value was 622 ± 156 µL. For the same compound, the “Increase in secondary foot volume, Day 14” value was 246 ± 162 µL and the “Increase in secondary foot volume, Day 21” value was 253 ± 138 µL.

With `Cc1nc(N)ccc1CNC(=O)Cn1c(C)cnc(NCCc2ccccc2)c1=O` [Thrombin inhibitor, 3-(2-phenylethylamino)-6-methyl-1-(2-amino-6-methyl-5-methylene-carboxamidomethylpyridinyl)-2-pyrazinone] the “Radiographic total scores of secondary paws compared with vehicle treated rats, in words” value (versus vehicle) was “significantly less”, the “Radiographic scores, Primary paws” value was 14.0 ± 3.3 and the “Radiographic scores, Secondary paws” value was 3.8 ± 3.79. The “Increase in primary foot volume, Day 14” value was 1591 ± 318 µL, the “Increase in primary foot volume, Day 21” value was 1997 ± 605 µL and the “Effect on the primary paw (foot volume), in words” value (primary paw, thrombin inhibitor 50 mg/kg/day oral gavage) was “insignificant effect”. For the same compound, the “Increase in secondary foot volume, Day 14” value was 382 ± 312 µL, the “Increase in secondary foot volume, Day 21” value was 704 ± 289 µL and the “Anti-inflammatory effect on the secondary paw (foot volume), in words” value (secondary paw, thrombin inhibitor 50 mg/kg/day oral gavage) was “significant anti-inflammatory effect”.
